Experiments:
[1] = molecular target: T1, Rac-1 (Homo sapiens, UniProt P63000); assay: Ras GTP Binding Domain Inhibition Assay (Ras Superfamily Assay); conditions: read-out: Rac-1: % inh.
T1 construct: made in house
How it was run: (§1)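 His-tagged GTPases immobilised on nickel-coated plates, pre-incubated with compound (20 μM single point, or serial dilution for IC50) 3 h at room temperature, with or without 10-30 μg/mL Sos (residues 556-1049) in the final hour. Bound Cy3- or Cy5-GTP (100 nM, 45 min) measured by fluorescence after washing.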

[2] = system: KRas wild type; assay: as above; conditions: for KRas wild type + SOS: % inh.: with SOS; for KRas wild type: % inh.: without SOS
How it was run: as §1

[3] = system: KRas G12D mutant; assay: as above; conditions: for KRas G12D mutant + SOS: % inh.: with SOS; for KRas G12D mutant: % inh.: without SOS
How it was run: as §1

[4] = system: MiaPaca-2 (expressing KRAS G12C mutant); assay: Proliferation Assay (Cell Viability Assay); type: cell-based; conditions: Homo sapiens, MIA PaCa-2; read-out: Proliferation in MiaPaca-2: IC50
How it was run: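 MiaPaca-2 cells (KRAS G12C) were grown in DMEM-high glucose with 10% FBS, seeded at 2000–5000 cells/well and cultured overnight. Compounds were added at 10 μM final, or as serial dilutions for IC50, in 0.3% DMSO/10% FBS for 2–4 days at 37 °C, 5% CO2. Viability was measured with CellTiter 96 Aqueous One and % inhibition calculated.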

Compound | inhibition at 20 µM [1] [%] | KRas wild type + SOS: % inh. ([2]; at 20 μM) | KRas wild type: % inh. ([2]; at 20 μM) | KRas G12D mutant + SOS: % inh. ([3]; at 20 μM) | KRas G12D mutant: % inh. ([3]; at 20 μM) | IC50 [4] [nM] | KRas wild type + SOS: % inh. ([2]; 20 μM compound) | KRas wild type: % inh. ([2]; 20 μM compound) | KRas G12D mutant + SOS: % inh. ([3]; 20 μM compound) | KRas G12D mutant: % inh. ([3]; 20 μM compound)
CO[C@@H]1C[C@H]1Nc1nc(-c2nccn2C)nn2cc(-c3ccncc3)c(-c3ccccc3)c12 (racemic) [Compound 197, rac N-((1R,2R)-2-methoxycyclopropyl)-2-(1-methyl-1H-imidazol-2-yl)-5-phenyl-6-(pyridin-4-yl)pyrrolo[2,1-f][1,2,4]triazin-4-amine] | 1 to 25 | A (A = 1-25% inhibition) | 0 (0 = 0% inhibition) | A (A = 1-25% inhibition) | A (A = 1-25% inhibition) | > 1000 | – | – | – | –
CO[C@H]1C[C@H](Nc2nc(-c3nccn3C)nn3cc(-c4cccc(CN)c4)c(-c4ccccc4)c23)C1 [Compound 204, 6-(3-(aminomethyl)phenyl)-N-((1r,3r)-3-methoxycyclobutyl)-2-(1-methyl-1H-imidazol-2-yl)-5-phenylpyrrolo[2,1-f][1,2,4]triazin-4-amine] | 1 to 25 | A (A = 1-25% inhibition) | A (A = 1-25% inhibition) | A (A = 1-25% inhibition) | A (A = 1-25% inhibition) | > 1000 | – | – | – | –
CO[C@H]1CC[C@H](Nc2nc(-c3nccn3C)nn3cc(-c4ccn(C)n4)c(C(=O)NCC(F)(F)F)c23)C1 (racemic) [Compound 181, 4-(((1S,3S)-3-Methoxycyclopentyl)amino)-2-(1-methyl-1H-imidazol-2-yl)-6-(1-methyl-1H-pyrazol-3-yl)-N-(2,2,2-trifluoroethyl)pyrrolo[2,1-f][1,2,4]triazine-5-carboxamide] | 1 to 25 | – | – | – | – | > 1000 | A (A = 1-25% inhibition) | A (A = 1-25% inhibition) | 0 (0 = 0% inhibition) | A (A = 1-25% inhibition)

Continued, values first:

inhibition at 20 µM [1] [%] | KRas wild type + SOS: % inh. ([2]; at 20 μM) | KRas wild type: % inh. ([2]; at 20 μM) | KRas G12D mutant + SOS: % inh. ([3]; at 20 μM) | KRas G12D mutant: % inh. ([3]; at 20 μM) | IC50 [4] [nM] | KRas wild type + SOS: % inh. ([2]; 20 μM compound) | KRas wild type: % inh. ([2]; 20 μM compound) | KRas G12D mutant + SOS: % inh. ([3]; 20 μM compound) | KRas G12D mutant: % inh. ([3]; 20 μM compound) | Compound
26 to 49 | C (C = 50-75% inhibition) | B (B = 26-49% inhibition) | C (C = 50-75% inhibition) | B (B = 26-49% inhibition) | > 1000 | – | – | – | – | CO[C@H]1C[C@H](Nc2nc(-c3nccn3C)nn3cc(-c4ccc(OCCN)cc4)c(-c4ccccc4)c23)C1.Cl [Compound 208, 6-(4-(2-Aminoethoxy)phenyl)-N-((1r,3r)-3-methoxycyclobutyl)-2-(1-methyl-1H-imidazol-2-yl)-5-phenylpyrrolo[2,1-f][1,2,4]triazin-4-amine hydrochloride salt]
76 to 100 | C (C = 50-75% inhibition) | C (C = 50-75% inhibition) | C (C = 50-75% inhibition) | D (D = 76-100% inhibition) | < 150 | – | – | – | – | Cc1c(-c2ccn(C)n2)cn2nc(-c3nccn3C)nc(Nc3ccc(N4CCCC4)cn3)c12 [Compound 228, 5-Methyl-2-(1-methyl-1H-imidazol-2-yl)-6-(1-methyl-1H-pyrazol-3-yl)-N-(5-(pyrrolidin-1-yl)pyridin-2-yl)pyrrolo[2,1-f][1,2,4]triazin-4-amine]
76 to 100 | D (D = 76-100% inhibition) | D (D = 76-100% inhibition) | D (D = 76-100% inhibition) | D (D = 76-100% inhibition) | > 1000 | – | – | – | – | COc1ccnc(Nc2nc(-c3nccn3C)nn3cc(-c4ccn(CCNC(=O)CCCC[C@H]5SC[C@H]6NC(=O)N[C@H]65)n4)c(C)c23)c1 [Compound 215, N-(2-(3-(4-((4-methoxypyridin-2-yl)amino)-5-methyl-2-(1-methyl-1H-imidazol-2-yl)pyrrolo[2,1-f][1,2,4]triazin-6-yl)-1H-pyrazol-1-yl)ethyl)-5-((3aR,4R,6aS)-2-oxohexahydro-1H-thieno[3,4-d]imidazol-4-yl)pentanamide]

— patent publication US12459951B2, “Compounds that interact with RAS superfamily proteins for treatment of cancers, inflammatory diseases, rasopathies, and fibrotic disease” (SHY Therapeutics, LLC, priority 2022, dated 2025)
